Source: paper PMC11727260, “Free Cholesterol‐Induced Liver Injury in Non‐Alcoholic Fatty Liver Disease: Mechanisms and a Therapeutic Intervention Using Dihydrotanshinone I” (Advanced Science, 2024)
Changes are numbered by the printed parent chain.

Assays:
[1] = molecular target: T1, peroxisome proliferator-activated receptor α (PPARα) (Homo sapiens, UniProt Q07869); test: microscale thermophoresis with purified recombinant EGFP-PPARα LBD; format: binding
T1 construct: gene PPARA
T1 sequence (Q07869 200-468): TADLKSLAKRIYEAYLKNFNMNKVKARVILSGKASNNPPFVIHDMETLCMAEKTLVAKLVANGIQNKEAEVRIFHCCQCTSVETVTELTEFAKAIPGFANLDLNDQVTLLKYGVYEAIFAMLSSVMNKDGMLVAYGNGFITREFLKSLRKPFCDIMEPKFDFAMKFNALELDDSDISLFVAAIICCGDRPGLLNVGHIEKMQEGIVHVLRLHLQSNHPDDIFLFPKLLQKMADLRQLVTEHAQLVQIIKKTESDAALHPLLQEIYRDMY

[2] = molecular target: T2, peroxisome proliferator-activated receptor α (PPARα) (Homo sapiens, UniProt Q07869, T283A); test: microscale thermophoresis with purified recombinant EGFP-PPARα LBD T283A; format: binding
T2 construct: gene PPARA
T2 sequence (Q07869 200-468 T283A): T1 sequence (Q07869 200-468) with T84A

`Cc1cccc2c3c(ccc12)C1=C(C(=O)C3=O)[C@@H](C)CO1` [DhT, dihydrotanshinone I] showed a Kd [1] of 1.66 ± 0.5 µM and a Kd [2] of 32.9 ± 6.1 µM.
